Measured values published in US5292737A, “N,N'-bis(sulfonamido)-2-amino-4-iminonaphthalen-1-ones and N,N'-bis(amido)-2-amino-4-iminonaphthalen-1-ones” (Sphinx Pharmaceuticals Corporation, priority 1992, dated 1994).
Where two headings read alike, the source gives them in different places.

Assays:
[1] = target: T1, PKC isoenzyme α (Homo sapiens, UniProt P17252); assay: Protein kinase C inhibition assay, PKC isoenzyme α; assay type: biochemical; details: read-out: IC50 PKC α
T1 construct: made in house; host or cells: baculovirus-insect cell expression system
Description: (§1) A protein kinase C (PKC) assay is designed to duplicate the in vivo conditions required for protein kinase C function. Therefore, pH, salt and cofactor concentrations are similar to physiologic levels. Either lysine rich histone H1 (H1) or Myelin basic protein (Mbp) are used in the assay as the phosphorylation acceptor-protein because they are readily available and serve as good substrates for protein kinase C. Enzyme was prepared from baculovirus-insect cell expression systems.
(§2) In the screening assay, phosphatidylserine (PS) and DAG were co-sonicated to form unilamellar and multilamellar vesicles. The concentration of lipids in the assay were suboptimal to maximize the detection potential of the assay for inhibitors or activators. Potential effector compounds were added to the assay in dimethylsulfoxide at four concentrations to give final inhibitor concentrations of 1, 10, 50, and 150 μM, respectively.
(§3) The assay was started with the addition of enzyme and stopped after 10 min by the addition of 25% trichloroacetic acid (TCA) and 1.0 mg/ml bovine serum albumin (BSA). The radioactive histone product was retained and washed on glass fiber filters that allow the unreacted P-ATP to pass through. The amount of phosphorylation was determined by measuring radioactivity with a scintillation counter. Controls were included in every assay to measure background activity in the absence of enzyme, activity in the absence of lipids, and the maximum enzyme activity with saturating levels of the activator lipids.
(§4) Results of the protein kinase C assay are shown in Table 4 in columns labeled α, βII, γ, δ, ε, and .zeta. which represent various PKC isoenzymes. Results are show as IC50, which is the concentration of test compound needed to inhibit 50% of the protein kinase C activity in controls.

[2] = target: T2, PKC isoenzyme βII (Homo sapiens, UniProt P05771); assay: Protein kinase C inhibition assay, PKC isoenzyme βII; assay type: biochemical; details: read-out: IC50 PKC βII
T2 construct: made in house; host or cells: baculovirus-insect cell expression system
Description: as §1, §2, §3, §4

[3] = target: T3, PKC isoenzyme γ (Homo sapiens, UniProt P05129); assay: Protein kinase C inhibition assay, PKC isoenzyme γ; assay type: biochemical; details: read-out: IC50 PKC γ
T3 construct: made in house; host or cells: baculovirus-insect cell expression system
Description: as §1, §2, §3, §4

[4] = target: T4, PKC isoenzyme δ (Homo sapiens, UniProt Q05655); assay: Protein kinase C inhibition assay, PKC isoenzyme δ; assay type: biochemical; details: read-out: IC50 PKC δ
T4 construct: made in house; host or cells: baculovirus-insect cell expression system
Description: as §1, §2, §3, §4

[5] = target: T5, PKC isoenzyme ε (Homo sapiens, UniProt Q02156); assay: Protein kinase C inhibition assay, PKC isoenzyme ε; assay type: biochemical; details: read-out: IC50 PKC ε
T5 construct: made in house; host or cells: baculovirus-insect cell expression system
T5 sequence (Q02156 1-737): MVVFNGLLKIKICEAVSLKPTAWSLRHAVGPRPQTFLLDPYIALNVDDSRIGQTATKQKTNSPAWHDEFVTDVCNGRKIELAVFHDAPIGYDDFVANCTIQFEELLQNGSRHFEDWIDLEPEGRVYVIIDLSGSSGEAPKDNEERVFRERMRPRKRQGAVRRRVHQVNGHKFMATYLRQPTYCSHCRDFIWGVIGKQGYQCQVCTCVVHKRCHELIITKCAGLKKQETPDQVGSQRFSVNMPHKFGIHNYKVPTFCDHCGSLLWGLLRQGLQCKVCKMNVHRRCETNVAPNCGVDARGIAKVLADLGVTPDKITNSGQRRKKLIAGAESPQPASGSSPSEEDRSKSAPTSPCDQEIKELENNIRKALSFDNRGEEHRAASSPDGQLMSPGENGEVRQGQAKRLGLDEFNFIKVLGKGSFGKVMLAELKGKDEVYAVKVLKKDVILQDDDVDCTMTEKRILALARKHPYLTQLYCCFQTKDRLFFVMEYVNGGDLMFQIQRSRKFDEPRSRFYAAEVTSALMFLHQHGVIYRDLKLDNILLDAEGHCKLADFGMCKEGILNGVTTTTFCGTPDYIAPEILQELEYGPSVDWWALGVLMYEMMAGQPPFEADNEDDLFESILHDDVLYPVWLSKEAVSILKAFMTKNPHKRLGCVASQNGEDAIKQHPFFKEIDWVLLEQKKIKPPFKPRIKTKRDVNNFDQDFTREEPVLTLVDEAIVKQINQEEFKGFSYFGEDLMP
Description: as §1, §2, §3, §4

[6] = target: T6, PKC isoenzyme ζ (Homo sapiens, UniProt Q05513); assay: Protein kinase C inhibition assay, PKC isoenzyme ζ; assay type: biochemical; details: read-out: IC50 PKC .zeta.
T6 construct: made in house; host or cells: baculovirus-insect cell expression system
T6 sequence (Q05513 1-592): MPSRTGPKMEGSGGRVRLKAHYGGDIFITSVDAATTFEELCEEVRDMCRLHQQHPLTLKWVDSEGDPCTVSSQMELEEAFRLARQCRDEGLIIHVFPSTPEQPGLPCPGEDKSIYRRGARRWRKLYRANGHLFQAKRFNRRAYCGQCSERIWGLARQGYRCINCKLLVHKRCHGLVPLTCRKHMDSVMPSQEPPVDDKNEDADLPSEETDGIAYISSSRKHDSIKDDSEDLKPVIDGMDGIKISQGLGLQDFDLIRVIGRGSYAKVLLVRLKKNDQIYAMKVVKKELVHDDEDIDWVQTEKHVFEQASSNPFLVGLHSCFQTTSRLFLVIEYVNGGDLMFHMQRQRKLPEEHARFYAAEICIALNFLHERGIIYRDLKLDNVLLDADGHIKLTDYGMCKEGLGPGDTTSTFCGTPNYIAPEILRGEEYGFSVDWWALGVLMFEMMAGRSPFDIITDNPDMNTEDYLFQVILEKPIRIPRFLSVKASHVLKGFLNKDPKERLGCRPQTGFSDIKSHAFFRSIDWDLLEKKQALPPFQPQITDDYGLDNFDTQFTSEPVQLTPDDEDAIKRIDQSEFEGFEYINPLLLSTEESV
Description: as §1, §2, §3, §4

[7] = target: cAMP dependent protein kinase (PKA); assay: cAMP Dependent Protein Kinase (PKA) Assay; assay type: biochemical
Description: Compounds found to be inhibitors of protein kinase C were tested for inhibitory activity against cAMP dependent protein kinase (PKA). This enzyme, like protein kinase C, plays an important role in cell-cell communication and is activated by a second messenger, cAMP. Secondary screening against PKA is useful for ascertaining the selectivity of the compounds of the invention.
The catalytic subunit of PKA (Sigma Chemical Company, St. Louis, Mo.) was mixed with buffer before addition of the inhibitor in dimethylsulfoxide (DMSO). Potential inhibitor compounds were added to the assay in dimethylsulfoxide at two concentrations to give final inhibitor concentrations of 30 and 150 μM, respectively. The assay was started by the addition of ^32 P-ATP and the reaction was allowed to proceed for 10 min before stopping with 25% trichloroacetic acid (TCA) and 1.0 mg/ml bovine serum albumin (BSA). Phosphorylated protein was then isolated by filtration and the radioactivity was counted by a beta scintillation counter.

[8] = tested on: normal human epidermal keratinocyte (NHEK) cells; assay: Human Keratinocyte Inhibition (3H TdR Assay); assay type: cell-based; details: 24 h incubation, 3H-thymidine
Description: Proliferating normal human epidermal keratinocyte (NHEK) cells were obtained in the second passage and grown in keratinocyte growth medium, KGM (Clonetics, Inc.) at 37° C., 5% CO2. The cells were trypsinized (0.25%), centrifuged, counted with a hemocytometer, and seeded at a concentration of 5000 cells in 100 μl well in a 96-well microtiter plate.
After the cells were allowed to attach to the microtiter plate overnight, test agents were titrated to determine the dose response. This was done by adding each test agent dilution in quadruplicate to the plate at 2× final concentration in 100 μl to bring the total volume of each well to 200 μl. Culture media with no test agent added was used as a normal control. Duplicate sets of plates were established.
After twenty-four hours of incubation with test compounds 37° C. and 5% CO2, […] of 0.01 mCi/ml tritiated thymidine (New England Nuclear) was added to each well and allowed to incubate for another 4 hours under the same conditions.
Supernatant was aspirated and discarded and […] of 0.05% trypsin (Gibco) was added to each cell. Cells were checked microscopically to determine detachment from surfaces and then harvested onto glass filters. The filters were then placed in vials to which scintillant was added and counted for one minute each in a scintillation counter.
Determine mean cpm of wells containing test agent (n=4) or KGM control (n=16). Calculate % of control by the formula: [formula]
The IC50, or connection necessary to inhibit 50% of control, of each test agent was determined by plotting % control vs log concentration for each dilution and then linear forecasting the 50% control value onto the X axis on a Quatro Pro computer program. Only regression values with a correlation coefficient greater than 0.9 were considered acceptable.

[9] = tested on: human neutrophils; assay: Neutrophil Superoxide Anion (O2) Release Assay, PMA-stimulated; assay type: cell-based; details: Homo sapiens, Neutrophil, read-out: Neutrophil Superoxide Release IC50
Description: Phorbol-12,13-myristate acetate (PMA) stimulates O2 production in human neutrophils which in turn reduces cytochrome C. Reducing cytochrome C increases absorbance and the change in optical density (OD) is proportional to the amount of O2 produced by PMA stimulation. Inhibition is expressed as an IC50 value and is the amount of test compound that will inhibit fifty percent of the PMA-stimulated respiratory outburst, i.e. O2^31 production (Lherer et al. (1981) J. Clinical lnvest. 68:1314; Roberts et al. (1982) J. Immunological Methods 49:193).
Human donor blood in 0.38% Sodium Citrate was centrifuged for 10 minutes at 160 ×g at room temperature. Platelet-rich plasma was removed leaving the buffy coat and the red cell-enriched fraction. Saline with 0.38% Sodium Citrate was added to this fraction up to the original blood volume. The enriched blood sample was diluted 1:1 (v:v) with 3% dextran T500 (Pharmacia) in normal saline and placed in a 60 cc syringe, inverted over a beaker and allowed to settle 30 minutes at room temperature.
Leukocyte-enriched plasma was removed from the syringe, placed into 50 ml polypropylene conical centrifuge tubes and underlaid with 15-20 ml Lymphocyte Separation Medium (LSM Organon Technica). The tubes were centrifuged for 40 minutes at 500×g at room temperature. The plasma, buffy coat and LSM were aspirated off the pellets which contained red blood cells and neutrophils.
The pellets were vortexed and 10 ml ice-cold 0.2% NaCl was added to lyse the red blood cells while vortexing again for 10 seconds. Ice-cold 1.6% NaCl was added while vortexing for 10 seconds. The cells were combined from multiple tubes, centrifuged 10 min at 400×g at 4° C. This red cell lysis was repeated and the resulting neutrophil pellet was washed once in Reaction HBSS (GIBCO, HBSS with Ca^++ and Mg^++,.238% HEPES, 0.1% dextrose, 0.1% RIA grade bovine serum albumin, PH 7.2). The cells were resuspended in 1/5 the original blood volume with Reaction HBSS, counted and adjusted to 4.0×10^6 cells/ml at 4° C.
Duplicate samples of neutrophils were tested in 12×75 mm polypropylene tubes containing 0.25 ml of the neutrophil suspension. Cytochrome C mix (0.25 ml, 6.0 mg/ml cytochrome C type IV (Sigma) plus 1200 U/ml bovine liver catalase (Sigma) in Reaction HBSS described above) was added. PMA was added at 2×the final concentration in 0.5 ml of Reaction HBSS. PMA final test concentration were 0.0, 0.3, 9.0, 27.0, and 81.0 ng/ml. The tubes were vortexed and incubated for 10 minutes at 37° C. with shaking. After chilling for 5 minutes at 4° C. and centrifuging for 10 minutes at 4° C., 550×g, 0.5 ml of supernatant was removed from each tube. Normal saline (0.5 ml) was added to each 0.5 ml sample of supernatant and the absorbance of each sample was read at 550 nm on a spectrophotometer (Shimadzu). The PMA concentration which gives nearly maximal stimulation of superoxide release was determined.
The test samples of neutrophils were prepared as in the PMA dose response through addition of cytochrome C mix. Then 0.4 ml of Reaction HBSS as a control or test agent at 2.5×final test concentration was added and the tubes were vortexed and incubated for 30 minutes at 37° C. with shaking. PMA (0.1 ml) was added at a 10× concentration of the final concentration determined above. The samples were incubated for 10 minutes at 37° C. with shaking, chilled for 5 minutes at 4° C., and then centrifuged for 5 minutes at 550×g at 4° C. The supernatant (0.5 ml) was diluted with 0.5 ml normal saline as above and the absorbance was then determined at 550 nm. The percent change was calculated as follows: [formula] D-sphingosine (Sigma) used as reference standard.
Human neutrophils were first isolated according to Lherer et al. ((1981) J. Clinical Invest. 68:1314) and then tested for stimulation of superoxide anion release with phorbol--12,13-myristate acetate (PMA) in a dose-dependent manner. […]

T4 sequence (Q05655 whole entry): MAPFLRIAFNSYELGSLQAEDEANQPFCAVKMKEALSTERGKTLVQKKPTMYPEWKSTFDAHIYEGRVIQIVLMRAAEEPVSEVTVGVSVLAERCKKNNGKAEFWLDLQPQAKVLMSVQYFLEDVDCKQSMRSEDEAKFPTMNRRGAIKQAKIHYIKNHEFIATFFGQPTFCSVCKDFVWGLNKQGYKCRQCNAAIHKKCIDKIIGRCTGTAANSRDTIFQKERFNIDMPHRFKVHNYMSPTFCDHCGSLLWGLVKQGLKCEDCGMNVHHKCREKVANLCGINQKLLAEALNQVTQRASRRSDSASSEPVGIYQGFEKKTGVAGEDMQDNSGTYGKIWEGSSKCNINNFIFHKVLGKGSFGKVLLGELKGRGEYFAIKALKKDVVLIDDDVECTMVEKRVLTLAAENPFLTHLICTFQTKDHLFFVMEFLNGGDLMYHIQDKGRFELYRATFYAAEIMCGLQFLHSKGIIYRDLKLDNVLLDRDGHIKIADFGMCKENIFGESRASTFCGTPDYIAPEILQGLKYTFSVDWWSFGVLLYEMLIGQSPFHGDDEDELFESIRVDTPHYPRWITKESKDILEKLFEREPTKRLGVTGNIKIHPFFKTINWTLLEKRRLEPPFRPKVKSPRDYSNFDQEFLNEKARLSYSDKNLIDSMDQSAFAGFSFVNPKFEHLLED
T2 sequence (P05771 1-673 isoform P05771-2): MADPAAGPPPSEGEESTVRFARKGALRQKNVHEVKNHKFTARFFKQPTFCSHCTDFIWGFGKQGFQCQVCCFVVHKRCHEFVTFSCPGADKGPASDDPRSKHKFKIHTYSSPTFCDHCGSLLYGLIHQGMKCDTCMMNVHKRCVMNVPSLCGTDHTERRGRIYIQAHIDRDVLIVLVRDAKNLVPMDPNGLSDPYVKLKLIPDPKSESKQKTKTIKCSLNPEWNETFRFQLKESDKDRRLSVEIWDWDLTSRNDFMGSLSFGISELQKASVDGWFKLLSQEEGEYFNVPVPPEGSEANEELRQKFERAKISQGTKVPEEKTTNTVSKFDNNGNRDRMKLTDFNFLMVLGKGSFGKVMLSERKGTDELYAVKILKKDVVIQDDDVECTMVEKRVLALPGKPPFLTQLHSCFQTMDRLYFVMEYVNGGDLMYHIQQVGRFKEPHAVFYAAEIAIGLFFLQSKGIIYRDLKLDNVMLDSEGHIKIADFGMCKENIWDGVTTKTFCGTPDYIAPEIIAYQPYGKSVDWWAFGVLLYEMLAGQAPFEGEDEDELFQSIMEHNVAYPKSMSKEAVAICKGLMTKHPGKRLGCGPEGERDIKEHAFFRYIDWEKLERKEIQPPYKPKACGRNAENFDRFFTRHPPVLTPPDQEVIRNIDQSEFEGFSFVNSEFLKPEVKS

| Compound | IC50 [1] | IC50 [2] | IC50 [3] | IC50 [4] | IC50 [5] | IC50 [6] | IC50 ([7]; catalytic subunit of PKA) | effect on PKA activity ([7]; result in words) | IC50 [8] | IC50 ([9]; PMA-stimulated human neutrophils) | IC50 [9] |
| --- | --- | --- | --- | --- | --- | --- | --- | --- | --- | --- | --- |
| N=C(N)NS(=O)(=O)c1ccc(N=C2C=C(Nc3ccc(S(=O)(=O)NC(=N)N)cc3)C(=O)c3ccccc32)cc1 [Compound 3ab] | 125 µM | > 150 µM | 76 µM | > 150 µM | > 150 µM | > 150 µM | – | – | – | – | – |
| Cc1cc(C)nc(NS(=O)(=O)c2ccc(N=C3C=C(Nc4ccc(S(=O)(=O)Nc5cc(C)cc(C)n5)cc4)C(=O)c4ccccc43)cc2)c1 [Compound 3aj] | 90 µM | > 150 µM | 88 µM | > 150 µM | > 150 µM | > 150 µM | – | – | – | – | – |
| Cc1noc(NS(=O)(=O)c2ccc(N=C3C=C(Nc4ccc(S(=O)(=O)Nc5onc(C)c5C)cc4)C(=O)c4ccccc43)cc2)c1C [Compound 6b] | 35 µM | 50 µM | 29 µM | 39 µM | > 150 µM | – | > 150 µM | did not effect on PKA activity | 16.7 µM | – | – |
| O=C1C(Nc2ccc(S(=O)(=O)Nc3ncccn3)cc2)=CC(=Nc2ccc(S(=O)(=O)Nc3ncccn3)cc2)c2ccccc21 [Compound 6k] | 116 µM | – | 16 µM | – | – | 35 µM | – | – | – | 6.83 µM | – |
| CCCCCCCCCCCCCCCCNS(=O)(=O)c1ccc(N=C2C=C(Nc3ccc(S(=O)(=O)NCCCCCCCCCCCCCCCC)cc3)C(=O)c3ccccc32)cc1 [Compound 6o] | 100 µM | 99 µM | 94 µM | 102 µM | – | > 150 µM | – | – | – | – | – |
| CCCCCCCCCCCCC/C=C/[C@@H](O)[C@@H](N)CO [D--sphingosine, D-sphingosine, reference compound] | – | – | – | – | – | – | – | – | – | – | 2.85 µM |
